Data on 24 molecules can be found in patent US9926319B2, “Pyridyl piperidines” (MERCK PATENT GMBH, priority 2014, dated 2018).

A short description of data set [1]: CLint (intrinsic clearance) assay, microsomal incubation. It counts as in vitro ADME, Human. To be noted: NADPH, 37° C., up to 30 min; for microsomal CLint at 0.8 μM: human, liver microsomes, pH 7.4, human liver microsomes 0.5 mg/mL protein. As for the experimental part:
2. CLint (Intrinsic Clearance) Assay
A Tecan Genesis workstation (RWS ASY 150/8) was used to perform the microsomal incubations. Analysis was carried out using a Waters ACQUITY UPLC system coupled to an ABSciex API3000 mass spectrometer. Data analysis was performed using Assay Explorer (Symyx).
0.1 M potassium phosphate buffer pH 7.4 containing 1 mM MgCl2
15 mM NADPH in phosphate buffer
5.0 mg protein/mL liver microsomes in phosphate buffer
Each experiment consists of 12 test and 2 reference compounds. The reference compounds are incubated as a cocktail.
Dilution of test compounds was done in 2 steps from a 10 mM DMSO stock solution. First 4 μL stock solution was added to 196 μL of 20% DMSO in potassium phosphate buffer pH 7.4. In a second step 10 μL of the first dilution were added to […] potassium phosphate buffer and 100 μL internal standard solution to a final concentration of 0.8 μM. 100 μL of the final compound dilution were aliquoted into a 96 deep well plate. 12.5 μL liver microsomes were added to each well (0.5 mg/mL final protein concentration) and the samples preincubated for 5 min at 37° C. and 800 rpm agitation.
After the preincubation, 250 μL cold acetonitrile were added to the 0 min samples to prevent a reaction. Following this, 12.5 μL NADPH solution were added to all wells to start the incubation, with the exception of the 0 min and 30 min controls without cofactor, where the NADPH was substituted for phosphate buffer.
The incubations were stopped after 5, 10, 20 and 30 min by adding 250 μL cold acetonitrile to the individual wells.
The quenched samples were then centrifuged at 4000 g for 1 h at 4° C. 100 μL of the supernatant were transferred into 96 well plates for analysis.
The metabolic stability of each compound was determined by measurement of the change in LC-MS/MS peak area over time. Assay Explorer software was used to automatically calculate the slope k of the decline. The intrinsic clearance (CLint) of each compound was then calculated according to the formula: CLint(μL/min/mg protein)=k1000/protein concentration.
CLint is shown for each compound in Table 3 below.

The subject of a further data set is Wnt pathway. The data set is described as follows: Cellular assay for Wnt pathway activity (luciferase reporter cell based assay). To be noted: 24 h, HEK293 luciferase reporter cell line (ER-DSH, TCF dependent promoter), induced with estrogen (1 μM), read-out: 7df3 IC50. On the technique in general: Reporter assays use an easily measured gene product as a stand-in for the process of interest.

The structures appear in SMILES notation. pIC50: −log10 of the molar value.

Usually microsomal CLint stands for a measure of how fast metabolising enzymes remove a compound, apart from limits set by blood flow. In general, pIC50 refers to −log10 of the IC50, conventionally taken in molar units.

As for `O=C1NCCC12CCN(c1c(Cl)cncc1-c1ccc3oc(=O)[nH]c3c1)CC2` [Example 3, 5-[5-Chloro-4-(1-oxo-2,8-diaza-spiro[4.5]dec-8-yl)-pyridin-3-yl]-3H-benzooxazol-2-one], the microsomal CLint at 0.8 μM in data set [1] turned out to be 35 µL/min/mg. Further, the pIC50 with Wnt pathway was 8.36.
Take `Cn1ncc2cc(-c3cncc(Cl)c3N3CCC4(CC3)CNC(=O)O4)ccc21` [Example 4, 8-[3-Chloro-5-(1-methyl-1H-indazol-5-yl)-pyridin-4-yl]-1-oxa-3,8-diaza-spiro[4.5]decan-2-one]: in data set [1], the microsomal CLint at 0.8 μM worked out at 23 µL/min/mg. Also, in the data set with Wnt pathway, the pIC50 is 8.00.
On the same counts, the results for `CC(C)n1cc(-c2ccc(-c3cncc(Cl)c3N3CCC4(CCNC4=O)CC3)cc2)cn1` [Example 6, 8-{3-Chloro-5-[4-(1-isopropyl-1H-pyrazol-4-yl)-phenyl]-pyridin-4-yl}-2,8-diaza-spiro[4.5]decan-1-one] are 90 µL/min/mg and 8.21.
With `O=C1NCC2(CCN(c3c(Cl)cncc3-c3ccc4oc(=O)[nH]c4c3)CC2)O1` [Example 8, 8-[3-Chloro-5-(2-oxo-2,3-dihydro-benzooxazol-5-yl)-pyridin-4-yl]-1-oxa-3,8-diaza-spiro[4.5]decan-2-one], the microsomal CLint at 0.8 μM in data set [1] turned out to be 16 µL/min/mg. Further, the pIC50 with Wnt pathway is 8.01.
In the same order, the values of `Cn1ncc2ccc(-c3cncc(Cl)c3N3CCC4(CC3)CNC(=O)O4)cc21` [Example 10, 8-[3-Chloro-5-(1-methyl-1H-indazol-6-yl)-pyridin-4-yl]-1-oxa-3,8-diaza-spiro[4.5]decan-2-one] are 13 µL/min/mg and 7.55.
For `CN1C(=O)Cc2cc(-c3cncc(Cl)c3N3CCC4(CC3)CNC(=O)O4)ccc21` [Example 11, 8-[3-Chloro-5-(1-methyl-2-oxo-2,3-dihydro-1H-indol-5-yl)-pyridin-4-yl]-1-oxa-3,8-diaza-spiro[4.5]decan-2-one], the microsomal CLint at 0.8 μM in data set [1] is less than 10 µL/min/mg. In addition, the pIC50 in the data set with Wnt pathway was 7.48.
As for `O=C1CCc2ccc(-c3cncc(Cl)c3N3CCC4(CCNC4=O)CC3)cc2N1` [Example 12, 7-[5-Chloro-4-(1-oxo-2,8-diaza-spiro[4.5]dec-8-yl)-pyridin-3-yl]-3,4-dihydro-1H-quinolin-2-one], the microsomal CLint at 0.8 μM in data set [1] worked out at 27 µL/min/mg. Further, the negative-log IC50 (pIC50) with Wnt pathway was 7.37.
For the molecule `Nc1n[nH]c2cc(-c3cncc(Cl)c3N3CCC4(CC3)CC(=O)NC4=O)ccc12` [Example 14, 8-[3-(3-Amino-1H-indazol-6-yl)-5-chloro-pyridin-4-yl]-2,8-diaza-spiro[4.5]decane-1,3-dione], in data set [1], the microsomal CLint at 0.8 μM was less than 10 µL/min/mg. The pIC50 with Wnt pathway was 7.74.
Consider `O=C1NCC2(CCN(c3c(Cl)cncc3-c3ccc(-c4cnn(CCO)c4)cc3)CC2)O1` [Example 15, 8-(3-Chloro-5-{4-[1-(2-hydroxy-ethyl)-1H-pyrazol-4-yl]-phenyl}-pyridin-4-yl)-1-oxa-3,8-diaza-spiro[4.5]decan-2-one], for which, in data set [1], the intrinsic metabolic clearance (microsomal CLint) at 0.8 μM was less than 10 µL/min/mg. For the same molecule, the pIC50 with Wnt pathway was 7.77.
Take `Cn1cc(-c2ccc(-c3cncc(Cl)c3N3CCC4(CC3)NC(=O)CNC4=O)cc2)cn1` [Example 17, 9-{3-Chloro-5-[4-(1-methyl-1H-pyrazol-4-yl)-phenyl]-pyridin-4-yl}-1,4,9-triaza-spiro[5.5]undecane-2,5-dione]: the “Human Clint” value in data set [1] (human liver microsomes 0.5 mg/mL protein) worked out at 11 µL/min/mg. For the same molecule, the pIC50 in the data set on Wnt pathway was 7.96.
As to `CC1=NC(=O)C2(CCN(c3c(Cl)cncc3-c3ccc4c(cnn4C)c3)CC2)N1` [Example 19, 8-[3-Chloro-5-(1-methyl-1H-indazol-5-yl)-pyridin-4-yl]-2-methyl-1,3,8-triaza-spiro[4.5]dec-2-en-4-one], the microsomal CLint at 0.8 μM in data set [1] is less than 10 µL/min/mg. For the same molecule, the pIC50 with Wnt pathway was 7.68.
As for `CC1=NC(=O)C2(CCN(c3c(Cl)cncc3-c3ccc(-c4cnn(C)c4)cc3)CC2)N1` [Example 20, 8-{3-Chloro-5-[4-(1-methyl-1H-pyrazol-4-yl)-phenyl]-pyridin-4-yl}-2-methyl-1,3,8-triaza-spiro[4.5]dec-2-en-4-one], the microsomal CLint at 0.8 μM in data set [1] stood at 24 µL/min/mg. Also, the pIC50 in the data set with Wnt pathway is 7.66.
`CN1c2ccc(-c3cncc(Cl)c3N3CCC4(CC3)NC(=O)CNC4=O)cc2CS1(=O)=O` [Example 21, 9-[3-Chloro-5-(1-methyl-2,2-dioxo-2,3-dihydro-1H-2l6-benzo[c]isothiazol-5-yl)-pyridin-4-yl]-1,4,9-triaza-spiro[5.5]undecane-2,5-dione]: in data set [1], the microsomal CLint at 0.8 μM is less than 10 µL/min/mg. Further, the pIC50 with Wnt pathway was 7.51.
In the same order, the values of `CNC(=O)c1ccc(-c2cncc(Cl)c2N2CCC3(CCNC3=O)CC2)cc1` [Example 22, 4-[5-Chloro-4-(1-oxo-2,8-diaza-spiro[4.5]dec-8-yl)-pyridin-3-yl]-N-methyl-benzamide] are 27 µL/min/mg and 7.34.
Regarding `COC(=O)Nc1n[nH]c2cc(-c3cncc(Cl)c3N3CCC4(CCNC4=O)CC3)ccc12` [Example 23, {6-[5-Chloro-4-(1-oxo-2,8-diaza-spiro[4.5]dec-8-yl)-pyridin-3-yl]-1H-indazol-3-yl}-carbamic acid methyl ester], the intrinsic clearance (microsomal CLint) at 0.8 μM in data set [1] worked out at 49 µL/min/mg. Moreover, in the data set on Wnt pathway, the pIC50 was 7.41.
As to `Cn1cc(-c2ccc(-c3cncc(Cl)c3N3CCC(F)(C(N)=O)CC3)cc2)cn1` [Example 25, 5′-Chloro-4-fluoro-3′-[4-(1-methyl-1H-pyrazol-4-yl)-phenyl]-3,4,5,6-tetrahydro-2H-[1,4′]bipyridinyl-4-carboxylic acid amide], the microsomal CLint at 0.8 μM in data set [1] worked out at 23 µL/min/mg. Besides, the pIC50 with Wnt pathway was 8.15.
As to `CC(C)(C)N1Cc2cc(-c3cncc(Cl)c3N3CCC4(CCNC4=O)CC3)ccc2S1(=O)=O` [Example 26, 8-[3-(2-tert-Butyl-1,1-dioxo-2,3-dihydro-1H-1l6-benzo[d]isothiazol-5-yl)-5-chloro-pyridin-4-yl]-2,8-diaza-spiro[4.5]decan-1-one], the intrinsic clearance (microsomal CLint) at 0.8 μM in data set [1] is 30 µL/min/mg. Besides, the pIC50 in the data set with Wnt pathway was 7.70.
As for `Cn1nc(N)c2ccc(-c3cncc(Cl)c3N3CCC4(CC3)CNC(=O)O4)cc21` [Example 27, 8-[3-(3-Amino-1-methyl-1H-indazol-6-yl)-5-chloro-pyridin-4-yl]-1-oxa-3,8-diaza-spiro[4.5]decan-2-one], the intrinsic metabolic clearance (microsomal CLint) at 0.8 μM in data set [1] amounted to 58 µL/min/mg. Moreover, the pIC50 in the data set with Wnt pathway was 8.70.
For the molecule `Cn1nc(N)c2ccc(-c3cncc(Cl)c3N3CCC4(CC3)CC(=O)NC4=O)cc21` [Example 28, 8-[3-(3-Amino-1-methyl-1H-indazol-6-yl)-5-chloro-pyridin-4-yl]-2,8-diaza-spiro[4.5]decane-1,3-dione], the microsomal CLint at 0.8 μM in data set [1] was found to be 60 µL/min/mg. In the data set on Wnt pathway, the pIC50 was 8.89.
On to `O=C1NCCC12CCN(c1c(Cl)cncc1-c1ccc3c(c1)C(O)CS3(=O)=O)CC2` (stereo not drawn) [Example 29, 8-[3-Chloro-5-(3-hydroxy-1,1-dioxo-2,3-dihydro-1H-1l6-benzo[b]thiophen-5-yl)-pyridin-4-yl]-2,8-diaza-spiro[4.5]decan-1-one], for which the microsomal CLint at 0.8 μM in data set [1] was found to be 12 µL/min/mg. For the same molecule, the pIC50 in the data set on Wnt pathway is 7.80.
For `CN1c2ccc(-c3cncc(Cl)c3N3CCC4(CC3)CC(=O)NN4)cc2CS1(=O)=O` [Example 30, 8-[3-Chloro-5-(1-methyl-2,2-dioxo-2,3-dihydro-1H-2l6-benzo[c]isothiazol-5-yl)-pyridin-4-yl]-1,2,8-triaza-spiro[4.5]decan-3-one], the microsomal CLint at 0.8 μM in data set [1] came out at 27 µL/min/mg. For the same molecule, in the data set with Wnt pathway, the pIC50 is 7.89.
On the same counts, the results for `CN1c2ccc(-c3cncc(Cl)c3N3CCC(F)(C(N)=O)CC3)cc2CS1(=O)=O` [Example 31, 5′-Chloro-4-fluoro-3′-(1-methyl-2,2-dioxo-2,3-dihydro-1H-2l6-benzo[c]isothiazol-5-yl)-3,4,5,6-tetrahydro-2H-[1,4′]bipyridinyl-4-carboxylic acid amide] are 51 µL/min/mg and 8.55.
On the same counts, the results for `O=C1NCCC12CCN(c1c(Cl)cncc1-c1ccc3c(c1)CS(=O)(=O)C3)CC2` [Example 32, 8-[3-Chloro-5-(2,2-dioxo-2,3-dihydro-1H-2l6-benzo[c]thiophen-5-yl)-pyridin-4-yl]-2,8-diaza-spiro[4.5]decan-1-one] are 70 µL/min/mg and 8.33.
In the case of `CN1c2ccc(-c3cncc(Cl)c3N3CCC(C#N)(CCO)CC3)cc2CS1(=O)=O` [Example 33, 5′-Chloro-4-(2-hydroxy-ethyl)-3′-(1-methyl-2,2-dioxo-2,3-dihydro-1H-2l6-benzo[c]isothiazol-5-yl)-3,4,5,6-tetrahydro-2H-[1,4′]bipyridinyl-4-carbonitrile], in data set [1], the microsomal CLint at 0.8 μM amounted to 88 µL/min/mg. Moreover, the pIC50 with Wnt pathway was 9.22.
